Experimental data published in patent publication US20260083704A1, “LXR MODULATORS WITH BICYCLIC CORE MOIETY FOR TREATING DYSLIPIDEMIAS” (OrsoBio, Inc., priority 2022, published 2026).

What was measured:
[1] = test system: LXR target genes (Scd1, Fas, Srebp1) in liver; assay: Short term HFD mouse model: gene expression in liver tissue; type: in vivo; settings: HFD mice, expression normalized to Tbp; for response vs control in vivo at 20 mg/kg / response vs control in vivo at 10 mg/kg: Mus musculus, 4 h, read-out: Scd1 suppresion compared to vehicle
Procedure: (§1) The in vivo transcriptional regulation of several LXR target genes by LXR modulators was assessed in mice.
(§2) For this, C57BL/6J were purchased from Elevage Janvier (Rennes, France) at the age of 8 weeks. After an acclimation period of two weeks, animals were prefed on a high fat diet (HFD) (Ssniff Spezialdiäten GmbH, Germany, Surwit EF D12330 mod, Cat. No. E15771-34), with 60 kcal % from fat plus 1% (w/w) extra cholesterol (Sigma-Aldrich, St. Louis, MO) for 5 days. Animals were maintained on this diet during treatment with LXR modulators. The test compounds were formulated in 0.5% hydroxypropylmethylcellulose (HPMC) and administered in three doses (from 1.5 to 20 mg/kg each) by oral gavage according to the following schedule: on day one, animals received treatment in the morning and the evening (ca. 17:00), on day two animals received the final treatment in the morning after a 4 h fast and were sacrificed 4 h thereafter. Animal work was conducted according to the national guidelines for animal care in Germany.
Analysis of gene expression in liver tissue. To obtain total RNA from frozen liver tissue, samples (25 mg liver tissue) were first homogenized with RLA buffer (4M guanidin thiocyanate, 10 mM Tris, 0.97% w:v β-mercapto-ethanol). RNA was prepared using a SV 96 total RNA Isolation system (Promega, Madison, Wisconsin, USA) following the manufacturer's instructions. cDNAs were synthesized from 0.8-1 μg of total RNA using All-in-One cDNA Supermix reverse transcriptase (Absource Diagnostics, Munich, Germany). Quantitative PCR was performed and analyzed using Prime time Gene expression master mix (Integrated DNA Technologies, Coralville, Iowa, USA) and a 384-format ABI 7900HT Sequence Detection System (Applied Biosystems, Foster City, USA). The expression of the following genes was analysed: Stearoyl-CoA desaturase1 (Scd1), fatty acid synthase (Fas) and sterol regulatory element-binding protein1 (Srebp1). Specific primer and probe sequences (commercially available) are listed in Table 3. qPCR was conducted at 95° C. for 3 min, followed by 40 cycles of 95° C. for 15 s and 60° C. for 30 s. All samples were run in duplicates from the same RT-reaction. Gene expression was expressed in arbitrary units and normalized relative to the mRNA of the housekeeping gene TATA box binding protein (Tbp) using the comparative Ct method.

[2] = Short term HFD mouse model: plasma and liver exposure; type: in vivo; settings: HFD mice, 4 h after final dose
Procedure: as §1, §2
Upon termination, liver was collected, dipped in ice cold PBS for 30 seconds and cut into appropriate pieces. Pieces were snap frozen in liquid nitrogen and stored at −80° C. For the clinical chemistry analysis from plasma, alanine aminotransferase (ALT, IU/mL), cholesterol (CHOL, mg/dL) and triglycerides (TG, mg/dL) were determined using a fully-automated bench top analyzer (Respons®910, DiaSys Greiner GmbH, Flacht, Germany) with system kits provided by the manufacturer.

[3] = target: T1, GST-LXRβ ligand-binding domain (Homo sapiens, UniProt P55055); assay: TR-FRETβ activity assay (NCoA3 coactivator peptide recruitment); type: biochemical; settings: 1 μM 24(S)-25-epoxycholesterol prestimulation
T1 construct: amino acids 156-461; NP009052; made in house; host or cells: E. coli
T1 sequence (P55055 156-460 limits assumed): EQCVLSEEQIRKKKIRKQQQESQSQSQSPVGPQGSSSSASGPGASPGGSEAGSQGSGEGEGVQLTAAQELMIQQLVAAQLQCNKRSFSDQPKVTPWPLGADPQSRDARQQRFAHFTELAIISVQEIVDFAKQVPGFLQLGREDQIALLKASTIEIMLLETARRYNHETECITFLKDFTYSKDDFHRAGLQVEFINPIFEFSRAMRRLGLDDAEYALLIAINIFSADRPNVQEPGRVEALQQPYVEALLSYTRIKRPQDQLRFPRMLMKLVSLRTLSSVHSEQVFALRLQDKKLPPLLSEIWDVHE
Method in brief: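 E. coli-expressed GST-LXRβ LBD (aa 156-461, 76 nM) with biotinylated NCoA3 peptide (400 nM) in Tris/HCl pH 6.8 containing 1 μM 24(S)-25-epoxycholesterol agonist. Compounds tested at 50 μM down to 0.002 μM in triplicate. TR-FRET (Tb cryptate/XL665, ex 340, em 615/665 nm) read after 1 h at 4° C.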

[4] = three oral doses of 20 mg/kg over two days
[5] = three oral doses of 10 mg/kg over two days

| SMILES | Srebp1c suppr. compared to vehicle ([1]; three oral doses of 20 mg/kg) | response vs control in vivo at 20 mg/kg ([1]; three oral doses of 20 mg/kg) | liver exposure 4 h [2, 4] | liver/plasma ratio 4 h [2, 4] | plasma exposure 4 h [2, 4] | EC50 [3] | Fasn suppression compared to vehicle ([1]; three oral doses of 20 mg/kg) | Fasn suppression compared to vehicle ([1]; three oral doses of 10 mg/kg) | response vs control in vivo at 10 mg/kg ([1]; three oral doses of 10 mg/kg) | liver exposure 4 h [2, 5] | liver/plasma ratio 4 h [2, 5] | plasma exposure 4 h [2, 5] | Srebp1c suppr. compared to vehicle ([1]; three oral doses of 10 mg/kg) |
| --- | --- | --- | --- | --- | --- | --- | --- | --- | --- | --- | --- | --- | --- |
| Cc1ccc(S(=O)(=O)n2c(-c3cccc(-c4ccc(C(=O)O)cc4Cl)c3)c(-c3ccsc3C#N)c3cc(F)ccc32)cc1 [3/48] | D (<0.3) | < 30% | C (1 μM to ≤10 μM) | C (30 to ≤100) | D (<100 nM) | 100 to 1000 nM | – | – | – | – | – | – | – |
| O=C(O)c1ccc(-c2cccc(-c3c(-c4ccccc4C4COC4)c4cc(F)ccc4n3S(=O)(=O)c3ccc(C(F)F)cc3)c2)c(Cl)c1 [3/59] | D (<0.3) | 30 to 60% | C (1 μM to ≤10 μM) | B (5 to ≤30) | C (100 nM to <300 nM) | < 100 nM | – | – | – | – | – | – | – |
| Cc1ccc(S(=O)(=O)n2c(-c3cccc(C45CCC(C(=O)O)(CC4)CC5)c3)c(-c3ccsc3C#N)c3cc(F)ccc32)cc1 [3/64] | B (0.6 to ≤0.9) | < 30% | D (>10 μM) | D (>100) | C (100 nM to <300 nM) | 100 to 1000 nM | B (0.6 to ≤0.9) | – | – | – | – | – | – |
| N#Cc1cccc(C#N)c1-c1c(-c2cccc(-c3c(F)cc(CC(=O)O)cc3F)c2)n(S(=O)(=O)c2ccc(C(F)F)cc2)c2ccc(F)cc12 [3/73] | – | – | – | – | – | < 100 nM | – | A (>0.9) | < 30% | B (300 nM to ≤1 μM) | C (30 to ≤100) | D (<100 nM) | – |
| Cc1ccc(S(=O)(=O)n2c(-c3cccc(-c4ccc(C(=O)O)cc4)c3)c(-c3ccsc3C#N)c3cc(F)ccc32)cc1 [5/3] | – | 30 to 60% | C (1 μM to ≤10 μM) | B (5 to ≤30) | D (<100 nM) | 100 to 1000 nM | D (<0.3) | – | – | – | – | – | – |
| CC(=O)NS(=O)(=O)c1ccc(-c2cccc(-c3c(-c4c(C#N)cccc4C#N)c4cc(F)ccc4n3S(=O)(=O)c3ccc(C(F)F)cc3)c2)c(Cl)c1 [8/8] | – | – | – | – | – | < 100 nM | – | – | < 30% | B (300 nM to ≤1 μM) | B (5 to ≤30) | C (100 nM to <300 nM) | D (<0.3) |
| N#Cc1cccc(C#N)c1-c1c(-c2cccc(-c3ccc(C(=O)NCCS(=O)(=O)O)cc3Cl)c2)n(S(=O)(=O)c2ccc(C(F)F)cc2)c2ccc(F)cc12 [10/1] | – | – | – | – | – | < 100 nM | – | – | < 30% | B (300 nM to ≤1 μM) | C (30 to ≤100) | D (<100 nM) | D (<0.3) |
| CN(CCS(=O)(=O)O)C(=O)c1ccc(-c2cccc(-c3c(-c4c(C#N)cccc4C#N)c4cc(F)ccc4n3S(=O)(=O)c3ccc(C(F)F)cc3)c2)c(Cl)c1 [10/2] | – | – | – | – | – | < 100 nM | – | – | 30 to 60% | D (>10 μM) | B (5 to ≤30) | D (<100 nM) | C (0.3 to ≤0.6) |
